Tests used:
rat NaP2b (SLC34A2) = target: T1, rat NaP2b (SLC34A2) (Rattus norvegicus, UniProt Q9JJ09); experiment: Inhibition of NaP2b-mediated Pi (33P) uptake in transfected HEK293 cells, rat NaP2b; type: cell-based; conditions: 33P Pi uptake, 0.1 mM phosphate, value given as pIC50 range
T1 construct: host or cells: HEK293
T1 sequence (Q9JJ09 1-695): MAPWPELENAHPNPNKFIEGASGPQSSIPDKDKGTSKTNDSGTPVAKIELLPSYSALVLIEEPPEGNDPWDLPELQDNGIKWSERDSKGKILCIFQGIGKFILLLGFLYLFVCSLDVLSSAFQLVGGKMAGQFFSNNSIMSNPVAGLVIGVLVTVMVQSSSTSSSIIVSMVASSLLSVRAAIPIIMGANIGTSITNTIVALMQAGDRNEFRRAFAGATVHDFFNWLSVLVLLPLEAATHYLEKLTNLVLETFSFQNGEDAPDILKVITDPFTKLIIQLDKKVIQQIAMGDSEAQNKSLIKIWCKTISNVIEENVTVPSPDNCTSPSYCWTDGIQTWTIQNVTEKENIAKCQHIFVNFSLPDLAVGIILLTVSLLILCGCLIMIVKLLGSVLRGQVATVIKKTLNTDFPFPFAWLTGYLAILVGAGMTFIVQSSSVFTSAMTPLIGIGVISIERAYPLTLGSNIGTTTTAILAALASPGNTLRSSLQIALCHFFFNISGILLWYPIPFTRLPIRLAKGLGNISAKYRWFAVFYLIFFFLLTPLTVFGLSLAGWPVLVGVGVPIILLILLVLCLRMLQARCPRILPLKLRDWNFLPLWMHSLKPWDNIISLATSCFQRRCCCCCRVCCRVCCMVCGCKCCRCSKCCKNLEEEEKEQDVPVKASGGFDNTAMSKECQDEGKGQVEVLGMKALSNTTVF
Method in brief: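 The cells transiently expressed NaP2b after Lipofectamine transfection. Each compound was run in duplicate over twelve concentrations, 0.1 nM–30 uM.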

human NaP2b (SLC34A2) = target: T2, human NaP2b (SLC34A2) (Homo sapiens, UniProt O95436); experiment: Inhibition of NaP2b-mediated Pi (33P) uptake in transfected HEK293 cells, human NaP2b; type: cell-based; conditions: read-out: pIC50 range for human NaP2b (converted)
T2 construct: host or cells: HEK293
T2 sequence (O95436 1-690): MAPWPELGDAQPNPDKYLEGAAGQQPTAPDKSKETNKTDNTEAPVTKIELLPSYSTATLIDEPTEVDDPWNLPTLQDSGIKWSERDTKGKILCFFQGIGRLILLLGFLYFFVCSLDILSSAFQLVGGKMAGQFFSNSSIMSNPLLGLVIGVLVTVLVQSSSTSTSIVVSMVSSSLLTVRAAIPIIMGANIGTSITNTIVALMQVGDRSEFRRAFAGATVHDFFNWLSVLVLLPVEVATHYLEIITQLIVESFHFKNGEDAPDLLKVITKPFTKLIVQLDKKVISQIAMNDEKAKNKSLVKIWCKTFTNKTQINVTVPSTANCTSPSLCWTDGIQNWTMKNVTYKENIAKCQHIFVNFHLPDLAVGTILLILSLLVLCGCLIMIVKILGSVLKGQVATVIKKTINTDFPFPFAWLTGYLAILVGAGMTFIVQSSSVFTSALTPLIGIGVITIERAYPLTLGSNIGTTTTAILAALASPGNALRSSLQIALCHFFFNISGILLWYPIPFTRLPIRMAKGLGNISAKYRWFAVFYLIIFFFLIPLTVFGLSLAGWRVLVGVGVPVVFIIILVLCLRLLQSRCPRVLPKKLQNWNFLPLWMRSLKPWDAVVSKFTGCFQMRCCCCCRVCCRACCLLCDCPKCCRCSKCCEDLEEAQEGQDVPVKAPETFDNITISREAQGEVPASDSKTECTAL
Method in brief: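 Uptake of 33P-phosphate (100 uM KH2PO4 carrier, sodium vs choline buffer, pH 7.4) measured after 3-30 min at room temperature, with test compound at twelve concentrations from 0.1 nM to 30 uM in duplicate. Cells were HEK293 transfected with mutated human NaP2b (Thr insertion after 37, N39D) and treated with a PiT-silencing agent. pIC50 values from scintillation counts.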

[1] = Determination of compound Cmax and AUC after oral gavage (plasma LC-MS/MS); type: in vivo, Sprague-Dawley rats; conditions: Sprague-Dawley, rat, plasma, po, Structure (I) examples, Table 15, actual oral dose 3-15 mg/kg, plasma 0.5-4 h
Method: (§1) Sprague-Dawley rats were orally gavaged with test article at a nominal dose of 2.5 or 10 mg/kg and blood was collected at 0.5, 1, 2 and 4 h. Blood samples were processed to plasma using K2EDTA as an anticoaglulant. Plasma samples were treated with acetonitrile containing an internal standard, precipitated proteins removed by centrifugation. Supernatants were analyzed by LC-MS/MS and compound concentrations were determined by interpolation from a standard curve prepared in plasma. All compounds were orally dosed at the dosage shown, and pharmacokinetic parameters determined.
as §1, with “interpolated” for “interpolation”
as §1, with “interpolated” for “interpolation”

[2] = Stability of compounds in simulated gastric fluid (SGF); type: in vitro ADME; conditions: simulated gastric fluid (3 mg/mL pepsin), incubation time 6 hr, relative to t=0
Method: (§2) Test compounds were incubated at […] in simulated gastric fluid (SGF; standard USP solution with 3 mg/mL pepsin) or simulated intestinal fluid (SIF; standard USP solution with 3 mg/mL pancreatin) for 3 hr or 6 hr. HPLC-UV or HPLC-MS were used to determine test compound levels using peak area %. Results (Table 14) were reported as the percentage of test compound remaining after incubation in a given condition relative to test compound present at t=0 in the same condition.

[3] = Stability of compounds in simulated intestinal fluid (SIF); type: in vitro ADME; conditions: simulated intestinal fluid (3 mg/mL pancreatin), incubation time 6 hr, relative to t=0
Method: as §2

Row | IC50 (rat NaP2b (SLC34A2)) [µM] | IC50 (human NaP2b (SLC34A2)) [µM] | AUC [1] [ng·h/mL] | Cmax [1] [ng/mL] | % remaining, SGF [2] [%] | % remaining, SIF [3] [%] | SMILES
1 | < 1 | < 1 | < 30 | < 10 | – | – | O=C(O)Cc1cccc(SCc2cccc(C(=O)Nc3ccc(N4CCCCC4)cc3-c3cc(C(=O)N[C@H]4CCCc5ccccc54)ccn3)c2)c1 [Example 234, (S)-2-(3-(3-(4-(piperidin-1-yl)-2-(4-(1,2,3,4-tetrahydronaphthalen-1-ylcarbamoyl)pyridin-2-yl)phenylcarbamoyl)benzylthio)phenyl)acetic acid]
2 | 1 to 7.94 | < 1 | – | – | – | – | CCN(CC)c1ccc(NC(=O)c2cccc(CCCOCCOCCOCCOCCC(=O)N3CCC[C@H](C(=O)N(C)CCOCCOCCOCCOCCOCCOCCOC)C3)c2)c(-c2cc(C(=O)NCc3cccc(C(F)(F)F)c3)ccn2)c1 [Example 257, (S)-2-(2-(3-(16-(3-(2,5,8,11,14,17,20-heptaoxadocosan-22-yl(methyl)carbamoyl)piperidin-1-yl)-16-oxo-4,7,10,13-tetraoxahexadecyl)benzamido)-5-(diethylamino)phenyl)-N-(3-(trifluoromethyl)benzyl)isonicotinamide]
3 | < 1 | < 1 | – | – | – | – | CCN(CC)c1ccc(NC(=O)c2cccc(CCCOCCOCCOCCOCCOCC(CO)(CO)CO)c2)c(-c2cc(C(=O)NCc3cccc(C(F)(F)F)c3)ccn2)c1 [Example 332, N-(3-(trifluoromethyl)benzyl)-2-(5-(diethylamino)-2-(3-(3-(2-(2-(2-(2-(3-hydroxy-2,2-bis(hydroxymethyl)propoxy)ethoxy)ethoxy)ethoxy)ethoxy)propyl)benzamido)phenyl)isonicotinamide]
4 | < 1 | 1 to 7.94 | – | – | – | – | CCN(CC)c1ccc(NC(=O)c2cccc(CCCOCCOCCOCCOCCC(=O)N(CCO)CCO)c2)c(-c2cc(C(=O)N[C@H]3CCCc4ccccc43)ccn2)c1 [Example 282]

Continued, molecule first:

Row | SMILES | IC50 (rat NaP2b (SLC34A2)) [µM] | IC50 (human NaP2b (SLC34A2)) [µM] | AUC [1] [ng·h/mL] | Cmax [1] [ng/mL] | % remaining, SGF [2] [%] | % remaining, SIF [3] [%]
5 | CN(CCN1CCNC(=O)C1)C(=O)c1cccc(C(=O)Nc2ccc(N3CCCCC3)cc2-c2cc(C(=O)N[C@H]3CCCc4ccccc43)ccn2)c1 [Example 215, (S)—N1-methyl-N1-(2-(3-oxopiperazin-1-yl)ethyl)-N3-(4-(piperidin-1-yl)-2-(4-(1,2,3,4-tetrahydronaphthalen-1-ylcarbamoyl)pyridin-2-yl)phenyl)isophthalamide] | < 1 | < 1 | < 10 | < 10 | – | –
6 | O=C(O)CCOCCOCCOCCNC(=O)c1cccc(SCc2cccc(C(=O)Nc3ccc(N4CCCCC4)cc3-c3cc(C(=O)N[C@H]4CCCc5ccccc54)ccn3)c2)c1 [Example 233, (S)-1-oxo-1-(3-(3-(4-(piperidin-1-yl)-2-(4-(1,2,3,4-tetrahydronaphthalen-1-ylcarbamoyl)pyridin-2-yl)phenylcarbamoyl)benzylthio)phenyl)-5,8,11-trioxa-2-azatetradecan-14-oic acid] | 1 to 7.94 | 1 to 7.94 | < 10 | < 10 | – | –
7 | CN1CCN(CCN(C)C(=O)c2cccc(C(=O)Nc3ccc(N4CCCCC4)cc3-c3cc(C(=O)N[C@H]4CCCc5ccccc54)ccn3)c2)CC1=O [Example 216, (S)—N1-methyl-N1-(2-(4-methyl-3-oxopiperazin-1-yl)ethyl)-N3-(4-(piperidin-1-yl)-2-(4-(1,2,3,4-tetrahydronaphthalen-1-ylcarbamoyl)pyridin-2-yl)phenyl)isophthalamide] | < 1 | < 1 | < 10 | < 10 | – | –
8 | CCN(CC)c1ccc(NC(=O)c2cccc(CSc3cccc(CC(=O)O)c3)c2)c(-c2cc(C(=O)NCc3cccc(C(F)(F)F)c3)ccn2)c1 [Example 143, 2-(3-(3-(4-(diethylamino)-2-(4-(3-(trifluoromethyl)benzylcarbamoyl)pyridin-2-yl)phenylcarbamoyl)benzylthio)phenyl)acetic acid] | < 1 | < 1 | < 10 | < 10 | – | –
9 | CCN(CC)c1ccc(NC(=O)c2cccc(Cn3ccc4c(C(=O)NCCOCCOCCOCCC(=O)O)cccc43)c2)c(-c2cc(C(=O)N[C@H]3CCCc4ccccc43)ccn2)c1 [Example 182, (S)-1-(1-(3-(4-(diethylamino)-2-(4-(1,2,3,4-tetrahydronaphthalen-1-ylcarbamoyl)pyridin-2-yl)phenylcarbamoyl)benzyl)-1H-indol-4-yl)-1-oxo-5,8,11-trioxa-2-azatetradecan-14-oic acid] | – | – | – | – | >80 | >80
10 | CC(C)(C)OC(=O)CCOCCOCCOCCOCCCc1cccc(C(=O)Nc2ccc(OC3CCC3)cc2-c2cc(C(=O)N[C@H]3CCCc4ccccc43)ccn2)c1 [Example 284, (S)-tert-butyl 16-(3-((4-cyclobutoxy-2-(4-((1,2,3,4-tetrahydronaphthalen-1-yl)carbamoyl)pyridin-2-yl)phenyl)carbamoyl)phenyl)-4,7,10,13-tetraoxahexadecan-1-oate] | 1 to 7.94 | 1 to 7.94 | – | – | – | –
11 | COCCOCCOCCOCCOCCOCCOCCOCC(=O)N1CCCN(CCN(C)C(=O)c2cccc(C(=O)Nc3ccc(N4CCCCC4)cc3-c3cc(C(=O)N[C@H]4CCCc5ccccc54)ccn3)c2)CC1 [Example 213, (S)—N1-(2-(4-2,5,8,11,14,17,20,23-octaoxapentacosane-1,4-diazepan-1-yl)ethyl)-N1-methyl-N3-(4-(piperidin-1-yl)-2-(4-(1,2,3,4-tetrahydronaphthalen-1-ylcarbamoyl)pyridin-2-yl)phenyl)isophthalamide] | 10 to 31.6 | 1 to 7.94 | – | – | – | –
12 | CN(CCN1CCN(C(=O)N(C)CCOCCOCCOCCC(=O)OC(C)(C)C)CC1)C(=O)c1cccc(C(=O)Nc2ccc(N3CCCCC3)cc2-c2cc(C(=O)N[C@H]3CCCc4ccccc43)ccn2)c1 [Example 229, tert-butyl 3-[2-(2-{2-[methyl(4-{2-[N-methyl-1-(3-{[4-(piperidin-1-yl)-2-(4-{[(1S)-1,2,3,4-tetrahydronaphthalen-1-yl]carbamoyl}pyridin-2-yl)phenyl]carbamoyl}phenyl)formamido]ethyl}piperazin-1-yl)carbonylamino]ethoxy}ethoxy)ethoxy]propanoate] | < 1 | < 1 | – | – | – | –

— patent US20140023611A1 (priority 2010, published 2014)
